Reference: ChEMBL document CHEMBL4130473, “Design, synthesis and biological evaluation of 4,7,12,12a-tetrahydro-5H-thieno[3',2':3,4]pyrido[1,2-b]isoquinolines as novel adenosine 5'-monophosphate-activated protein kinase (AMPK) indirect activators for the treatment of type 2 diabetes” (Eur J Med Chem, 2017)
Active and inactive are the calls of the source. The rule behind the calls is not given here.

Experiments:
L6 [1] = assay: Activation of AMPKalpha in rat L6 cells assessed as increase in AMPKalpha Thr172 phosphorylation incubated for 1 hrs by Western blot method; assay type: cell-based
[2] = molecular target: AMPK alpha2/beta1/gamma1 (Homo sapiens) (UniProt P54646+P54619+Q9Y478); assay: Activation of human recombinant AMPKalpha2beta1gamma1 expressed in Escherichia coli at 20 uM incubated for 1 hr using serine/threonine kinase substrate
[3] = Oral bioavailability in Sprague-Dawley rat at 10 mg/kg; assay type: ADME, organism-based; conditions: in vivo
[4] = MRT in Sprague-Dawley rat at 10 mg/kg, po; assay type: ADME, organism-based; conditions: in vivo
[5] = Inhibition of oxygen consumption rate in isolated mitochondria from rat L6 cells assessed as oxygen consumption level at 10 uM (reference value: 100 +/- 1.9%); assay type: functional; set-up: scale not given: the % may be the effect or the level left
L6 [6] = assay: Stimulation of glucose consumption in rat L6 cells at 20 uM incubated for 12 hrs by glucose assay reagent based glucose oxidase method relative to untreated control; assay type: functional
[7] = molecular target: AMP-activated protein kinase alpha-2/beta-1/gamma-3 (Homo sapiens) (UniProt P54646+Q9Y478+Q9UGI9); assay: Activation of human recombinant AMPKalpha2beta1gamma3 expressed in Escherichia coli at 20 uM incubated for 1 hr using serine/threonine kinase substrate
[8] = AUC in Sprague-Dawley rat at 10 mg/kg, po; assay type: ADME, organism-based; conditions: in vivo
Mus musculus [9] = assay: Antidiabetic activity in db/db mouse assessed as effect on glucose tolerance capacity by measuring blood glucose AUC level at 120 mg/kg/day dosed via gavage for 4 weeks by OGTT; assay type: functional, organism-based
[10] = Cmax in Sprague-Dawley rat at 2 mg/kg, iv; assay type: ADME, organism-based; set-up: dose 2 mg/kg, route intravenous; conditions: in vivo
[11] = AUC in Sprague-Dawley rat at 2 mg/kg, iv; assay type: ADME, organism-based; conditions: in vivo
[12] = MRT in Sprague-Dawley rat at 2 mg/kg, iv; assay type: ADME, organism-based; conditions: in vivo
[13] = Cmax in Sprague-Dawley rat at 10 mg/kg, po; assay type: ADME, organism-based; set-up: dose 10 mg/kg, route oral; conditions: in vivo
[14] = Tmax in C57BL/6J mouse at 10 mg/kg, po; assay type: ADME, organism-based; conditions: in vivo
L6 [15] = assay: Inhibition of mitochondrial membranes potential in rat L6 cells assessed as mitochondrial membranes potential level at 20 uM incubated for 40 mins by JC1 dye staining based fluorescence assay (reference value: 100 +/- 2.8%); assay type: functional; set-up: scale not given: the % may be the effect or the level left
Rattus norvegicus = assay: Clearance in Sprague-Dawley rat at 2 mg/kg, iv; assay type: ADME, organism-based; conditions: in vivo
[16] = molecular target: AMP-activated protein kinase (AMPK) alpha-1/beta-1/gamma-1 (Homo sapiens) (UniProt P54619+Q9Y478+Q13131); assay: Activation of human recombinant AMPKalpha1beta1gamma1 expressed in Escherichia coli at 20 uM incubated for 1 hr using serine/threonine kinase substrate
[17] = AUC in C57BL/6J mouse at 10 mg/kg, po; assay type: ADME, organism-based; conditions: in vivo
Hepatocyte [18] = assay: Inhibition of glucose production in Sprague-Dawley rat primary hepatocytes grown under gluconeogenic medium assessed as glucose production level at 10 uM incubated for 6 hrs by glucose assay reagent based glucose oxidase method (reference value: 100%); assay type: functional; set-up: scale not given: the % may be the effect or the level left
[19] = Cmax in C57BL/6J mouse at 10 mg/kg, po; assay type: ADME, organism-based; set-up: dose 10 mg/kg, route oral; conditions: in vivo
[20] = molecular target: AMPK alpha2/beta2/gamma1 (Homo sapiens) (UniProt P54646+O43741+P54619); assay: Activation of human recombinant AMPKalpha2beta2gamma1 expressed in Escherichia coli at 20 uM incubated for 1 hr using serine/threonine kinase substrate
Hepatocyte [21] = assay: Potency index, ratio of berberine potency to compound potency for inhibition of glucose production in Sprague-Dawley rat primary hepatocytes grown under gluconeogenic medium aincubated for 6 hrs by glucose assay reagent based glucose oxidase method; assay type: functional
Mus musculus [22] = assay: Antidiabetic activity in db/db mouse assessed as reduction in fasting blood glucose level at 120 mg/kg/day dosed via gavage for 4 weeks measured during 2 to 4 weeks; assay type: functional, organism-based
[23] = Inhibition of oxygen consumption rate in isolated mitochondria from rat L6 cells assessed as oxygen consumption level at 2.5 uM (reference value: 100 +/- 1.9%); assay type: functional; set-up: scale not given: the % may be the effect or the level left
[24] = Inhibition of oxygen consumption rate in isolated mitochondria from rat L6 cells assessed as oxygen consumption level at 5 uM (reference value: 100 +/- 1.9%); assay type: functional; set-up: scale not given: the % may be the effect or the level left
[25] = Half life in Sprague-Dawley rat at 10 mg/kg, po; assay type: ADME, organism-based; conditions: in vivo
[26] = Half life in Sprague-Dawley rat at 2 mg/kg, iv; assay type: ADME, organism-based; conditions: in vivo
[27] = AUCt in C57BL/6J mouse at 10 mg/kg, po; assay type: ADME, organism-based; conditions: in vivo
[28] = molecular target: AMPK alpha1/beta2/gamma1 (Homo sapiens) (UniProt O43741+P54619+Q13131); assay: Activation of human recombinant AMPKalpha1beta2gamma1 expressed in Escherichia coli at 20 uM incubated for 1 hr using serine/threonine kinase substrate
Hepatocyte [29] = assay: Inhibition of glucose production in Sprague-Dawley rat primary hepatocytes grown under gluconeogenic medium incubated for 6 hrs by glucose assay reagent based glucose oxidase method (reference value: 100%); assay type: functional, cell-based
L6 [30] = assay: Inhibition of oxygen consumption rate in isolated mitochondria from rat L6 cells; assay type: functional
[31] = MRT in C57BL/6J mouse at 10 mg/kg, po; assay type: ADME, organism-based; conditions: in vivo
[32] = molecular target: Voltage-gated inwardly rectifying potassium channel KCNH2 (Homo sapiens, UniProt Q12809); assay: Inhibition of human ERG by patch clamp assay
[33] = molecular target: AMPK alpha1/beta1/gamma2 (Homo sapiens) (UniProt Q9UGJ0+Q9Y478+Q13131); assay: Activation of human recombinant AMPKalpha1beta1gamma2 expressed in Escherichia coli at 20 uM incubated for 1 hr using serine/threonine kinase substrate
Hepatocyte [34] = assay: Inhibition of glucose production in Sprague-Dawley rat primary hepatocytes grown under gluconeogenic medium assessed as glucose production level at 5 uM incubated for 6 hrs by glucose assay reagent based glucose oxidase method (reference value: 100%); assay type: functional; set-up: scale not given: the % may be the effect or the level left
Hepatocyte [35] = assay: Inhibition of glucose production in Sprague-Dawley rat primary hepatocytes grown under gluconeogenic medium assessed as glucose production level at 20 uM incubated for 6 hrs by glucose assay reagent based glucose oxidase method (reference value: 100%); assay type: functional; set-up: scale not given: the % may be the effect or the level left
[36] = Tmax in Sprague-Dawley rat at 10 mg/kg, po; assay type: ADME, organism-based; conditions: in vivo
L6 [37] = assay: Inhibition of oxygen consumption rate in rat L6 cells assessed as oxygen consumption level at 10 uM (reference value: 100 +/- 1.6%); assay type: functional; set-up: scale not given: the % may be the effect or the level left
L6 [38] = assay: Inhibition of oxygen consumption rate in rat L6 cells assessed as oxygen consumption level at 20 uM (reference value: 100 +/- 1.6%); assay type: functional; set-up: scale not given: the % may be the effect or the level left
[39] = AUCt in Sprague-Dawley rat at 2 mg/kg, iv; assay type: ADME, organism-based; conditions: in vivo
[40] = Tmax in Sprague-Dawley rat at 2 mg/kg, iv; assay type: ADME, organism-based; conditions: in vivo
L6 [41] = assay: Inhibition of oxygen consumption rate in rat L6 cells; assay type: functional, cell-based
[42] = AUCt in Sprague-Dawley rat at 10 mg/kg, po; assay type: ADME, organism-based; conditions: in vivo
L6 [43] = assay: Activation of AMPKalpha in rat L6 cells assessed as increase in ACC phosphorylation incubated for 1 hrs by Western blot method; assay type: cell-based
[44] = molecular target: AMP-activated protein kinase alpha-1/beta-2/gamma-3 (Homo sapiens) (UniProt O43741+Q13131+Q9UGI9); assay: Activation of human recombinant AMPKalpha1beta2gamma3 expressed in Escherichia coli at 20 uM incubated for 1 hr using serine/threonine kinase substrate
[45] = Inhibition of oxygen consumption rate in isolated mitochondria from rat L6 cells assessed as oxygen consumption level at 1.2 uM (reference value: 100 +/- 1.9%); assay type: functional; set-up: scale not given: the % may be the effect or the level left
[46] = molecular target: AMP-activated protein kinase alpha-2/beta-2/gamma-2 (Homo sapiens) (UniProt P54646+O43741+Q9UGJ0); assay: Activation of human recombinant AMPKalpha2beta2gamma2 expressed in Escherichia coli at 20 uM incubated for 1 hr using serine/threonine kinase substrate

AMP-activated protein kinase alpha-2/beta-1/gamma-3 (Homo sapiens), sequence (P54646 whole entry): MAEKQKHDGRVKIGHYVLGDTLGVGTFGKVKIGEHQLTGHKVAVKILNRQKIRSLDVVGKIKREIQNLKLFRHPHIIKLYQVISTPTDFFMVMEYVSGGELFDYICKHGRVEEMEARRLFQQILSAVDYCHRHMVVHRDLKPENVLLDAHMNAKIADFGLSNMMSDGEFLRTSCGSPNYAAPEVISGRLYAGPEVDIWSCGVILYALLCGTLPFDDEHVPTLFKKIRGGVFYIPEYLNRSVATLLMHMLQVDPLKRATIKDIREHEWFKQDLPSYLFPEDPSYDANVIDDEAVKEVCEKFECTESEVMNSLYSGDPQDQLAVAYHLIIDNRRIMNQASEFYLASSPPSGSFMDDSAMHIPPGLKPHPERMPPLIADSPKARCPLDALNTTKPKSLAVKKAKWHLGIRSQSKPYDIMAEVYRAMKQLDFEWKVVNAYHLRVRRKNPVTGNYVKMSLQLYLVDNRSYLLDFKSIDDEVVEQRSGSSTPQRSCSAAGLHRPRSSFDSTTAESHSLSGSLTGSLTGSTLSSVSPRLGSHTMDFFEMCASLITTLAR
AMP-activated protein kinase alpha-2/beta-1/gamma-3 (Homo sapiens), sequence (Q9UGI9 whole entry partner): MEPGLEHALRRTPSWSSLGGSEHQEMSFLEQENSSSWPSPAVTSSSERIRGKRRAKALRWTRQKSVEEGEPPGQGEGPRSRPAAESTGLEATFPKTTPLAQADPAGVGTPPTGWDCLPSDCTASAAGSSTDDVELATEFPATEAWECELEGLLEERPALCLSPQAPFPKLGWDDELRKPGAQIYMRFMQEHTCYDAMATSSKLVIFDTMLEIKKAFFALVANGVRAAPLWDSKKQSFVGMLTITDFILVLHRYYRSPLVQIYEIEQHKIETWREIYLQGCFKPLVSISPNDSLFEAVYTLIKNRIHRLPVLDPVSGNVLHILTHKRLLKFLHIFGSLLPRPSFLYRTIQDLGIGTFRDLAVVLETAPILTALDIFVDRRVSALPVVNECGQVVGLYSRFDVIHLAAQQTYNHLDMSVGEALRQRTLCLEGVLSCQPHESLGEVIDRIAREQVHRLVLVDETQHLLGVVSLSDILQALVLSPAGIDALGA
AMP-activated protein kinase alpha-2/beta-1/gamma-3 (Homo sapiens), sequence (Q9Y478 2-270 partner limits assumed): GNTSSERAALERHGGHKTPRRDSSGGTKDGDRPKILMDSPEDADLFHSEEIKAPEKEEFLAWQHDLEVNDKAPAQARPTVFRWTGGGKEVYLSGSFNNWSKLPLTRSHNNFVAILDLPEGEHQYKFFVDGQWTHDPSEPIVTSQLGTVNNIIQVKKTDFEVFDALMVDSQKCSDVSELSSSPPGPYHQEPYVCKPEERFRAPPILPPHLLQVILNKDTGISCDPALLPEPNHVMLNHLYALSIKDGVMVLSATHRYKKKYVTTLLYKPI
AMPK alpha1/beta1/gamma2 (Homo sapiens), sequence (Q13131 whole entry partner): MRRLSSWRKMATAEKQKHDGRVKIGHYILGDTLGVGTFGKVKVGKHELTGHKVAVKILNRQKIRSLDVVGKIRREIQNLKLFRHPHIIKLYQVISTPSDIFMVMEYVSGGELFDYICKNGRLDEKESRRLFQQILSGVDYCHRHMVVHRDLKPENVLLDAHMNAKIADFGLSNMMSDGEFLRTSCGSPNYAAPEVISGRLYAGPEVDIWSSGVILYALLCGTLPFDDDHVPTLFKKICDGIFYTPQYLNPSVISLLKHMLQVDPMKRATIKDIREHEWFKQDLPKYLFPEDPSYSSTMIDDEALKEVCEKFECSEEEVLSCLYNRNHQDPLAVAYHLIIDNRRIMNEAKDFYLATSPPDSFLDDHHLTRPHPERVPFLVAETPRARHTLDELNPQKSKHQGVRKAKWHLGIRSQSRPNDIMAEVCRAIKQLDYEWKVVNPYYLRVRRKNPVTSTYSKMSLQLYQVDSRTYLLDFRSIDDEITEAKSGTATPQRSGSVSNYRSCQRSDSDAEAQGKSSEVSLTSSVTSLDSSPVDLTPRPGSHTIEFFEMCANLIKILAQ
AMPK alpha1/beta1/gamma2 (Homo sapiens), sequence (Q9UGJ0 whole entry): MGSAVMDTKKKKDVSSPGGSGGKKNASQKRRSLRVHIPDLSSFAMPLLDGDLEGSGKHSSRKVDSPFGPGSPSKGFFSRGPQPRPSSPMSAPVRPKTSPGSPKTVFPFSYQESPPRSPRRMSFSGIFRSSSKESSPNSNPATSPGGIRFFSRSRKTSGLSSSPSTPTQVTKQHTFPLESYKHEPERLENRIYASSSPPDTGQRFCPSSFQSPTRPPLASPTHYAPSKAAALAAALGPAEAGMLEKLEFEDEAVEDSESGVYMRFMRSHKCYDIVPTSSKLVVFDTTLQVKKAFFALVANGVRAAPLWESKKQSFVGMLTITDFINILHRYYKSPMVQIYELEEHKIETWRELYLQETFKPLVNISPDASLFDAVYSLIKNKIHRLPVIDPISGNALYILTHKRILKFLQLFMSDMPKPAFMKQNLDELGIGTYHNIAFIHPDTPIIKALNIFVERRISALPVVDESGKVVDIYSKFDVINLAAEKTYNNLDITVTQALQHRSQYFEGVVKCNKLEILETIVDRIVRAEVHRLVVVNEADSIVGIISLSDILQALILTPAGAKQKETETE
AMPK alpha1/beta1/gamma2 (Homo sapiens), sequence (Q9Y478 2-270 partner limits assumed): as the sequence (Q9Y478 2-270 partner limits assumed) above
Voltage-gated inwardly rectifying potassium channel KCNH2, sequence (Q12809 whole entry): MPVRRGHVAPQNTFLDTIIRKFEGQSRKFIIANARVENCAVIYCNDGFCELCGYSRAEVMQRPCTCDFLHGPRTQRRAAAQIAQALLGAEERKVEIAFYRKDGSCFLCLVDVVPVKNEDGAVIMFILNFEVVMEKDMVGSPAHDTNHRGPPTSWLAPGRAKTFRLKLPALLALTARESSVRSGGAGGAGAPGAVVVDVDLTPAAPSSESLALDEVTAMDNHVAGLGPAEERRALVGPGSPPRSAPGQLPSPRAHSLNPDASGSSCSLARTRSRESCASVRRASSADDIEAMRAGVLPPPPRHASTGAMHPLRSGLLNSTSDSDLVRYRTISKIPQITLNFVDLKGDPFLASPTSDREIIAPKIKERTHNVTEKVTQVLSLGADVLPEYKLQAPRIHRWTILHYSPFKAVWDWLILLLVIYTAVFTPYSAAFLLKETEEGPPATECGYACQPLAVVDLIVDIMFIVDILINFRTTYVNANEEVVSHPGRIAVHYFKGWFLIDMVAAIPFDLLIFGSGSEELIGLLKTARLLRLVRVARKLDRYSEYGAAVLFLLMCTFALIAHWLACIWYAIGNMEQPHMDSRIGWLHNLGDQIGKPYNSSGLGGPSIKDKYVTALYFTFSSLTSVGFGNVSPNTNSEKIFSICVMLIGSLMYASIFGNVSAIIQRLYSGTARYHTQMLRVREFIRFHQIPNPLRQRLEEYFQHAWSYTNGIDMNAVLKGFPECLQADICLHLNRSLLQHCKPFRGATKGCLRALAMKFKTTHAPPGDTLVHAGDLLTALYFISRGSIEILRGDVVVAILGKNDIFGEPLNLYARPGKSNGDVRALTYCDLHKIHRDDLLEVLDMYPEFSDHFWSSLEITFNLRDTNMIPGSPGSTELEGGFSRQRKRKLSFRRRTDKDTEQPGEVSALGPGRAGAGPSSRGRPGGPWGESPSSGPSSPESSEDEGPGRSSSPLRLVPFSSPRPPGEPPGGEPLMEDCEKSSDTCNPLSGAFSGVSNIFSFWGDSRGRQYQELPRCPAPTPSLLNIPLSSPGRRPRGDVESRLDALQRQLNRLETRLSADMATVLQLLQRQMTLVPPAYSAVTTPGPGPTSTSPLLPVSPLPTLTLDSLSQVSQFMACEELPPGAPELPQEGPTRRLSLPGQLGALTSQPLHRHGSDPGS

Compound: CCc1cc2c(s1)CCN1Cc3c(OC)ccc(OC)c3CC21 (configuration not stated)
- Activity (L6 [1]): Dose-dependent effect
- Activity [2]: inactive
- bioavailability [3]: 45.4%
- MRT [4]: 5.5 h
- Activity [5]: 41.7%
- Activity (L6 [6]): 228.3%
- Activity [7]: inactive
- AUC [8]: 889 ng·h/mL
- Activity (Mus musculus [9]): inactive
- Cmax [10]: 114 ng/mL
- AUC [11]: 432 ng·h/mL
- MRT [12]: 5.8 h
- Cmax [13]: 162 ng/mL
- Tmax [14]: 0.25 h
- Activity (L6 [15]): 59.5%
- clearance (Rattus norvegicus): 76.7 mL/min/kg
- Activity [16]: inactive
- AUC [17]: 244 ng·h/mL
- Activity (Hepatocyte [18]): 16.3%
- Cmax [19]: 113 ng/mL
- Activity [20]: inactive
- Ratio (Hepatocyte [21]): 1.7
- Activity (Mus musculus [22]): Active
- Activity [23]: 66.3%
- Activity [24]: 54%
- half-life [25]: 7.2 h
- half-life [26]: 10.8 h
- AUC(0-t) [27]: 188 ng·h/mL
- Activity [28]: inactive
- inhibition (Hepatocyte [29]): Dose-dependent effect
- inhibition (L6 [30]): Dose-dependent effect
- MRT [31]: 5.1 h
- IC50 [32]: 10.5 µM
- Activity [33]: inactive
- Activity (Hepatocyte [34]): 25.7%
- Activity (Hepatocyte [35]): 14.9%
- Tmax [36]: 0.5 h
- Activity (L6 [37]): 54%
- Activity (L6 [38]): 47.5%
- AUC(0-t) [39]: 364 ng·h/mL
- Tmax [40]: 0.25 h
- inhibition (L6 [41]): Dose-dependent effect
- AUC(0-t) [42]: 825 ng·h/mL
- Activity (L6 [43]): Dose-dependent effect
- Activity [44]: inactive
- Activity [45]: 76.2%
- Activity [46]: inactive
